Experimental data taken from PubChem BioAssay AID1259407 (Chemical Carcinogenesis Research Information System (CCRIS), 2018).
Activity calls are given as the source filed them. No rule for the calls is given here.

Test system: CCRIS mutagenicity, Ames/micronucleus/aberration tests
Experiment: CCRIS mutagenicity studies
[1] = Test System: AMES SALMONELLA TYPHIMURIUM, Strain/Indicator: TA98, Metabolic Activation: NONE, Method: STANDARD PLATE
[2] = Test System: AMES SALMONELLA TYPHIMURIUM, Strain/Indicator: TA100, Metabolic Activation: NONE, Method: STANDARD PLATE

O=[O+][O-]
mutagenic call (Test System: AMES SALMONELLA TYPHIMURIUM, Strain/Indicator: TA98, Metabolic Activation: NONE, Method: VAPOR CHAMBER): inactive; negative | mutagenic call (Test System: AMES SALMONELLA TYPHIMURIUM, Strain/Indicator: TA98, Metabolic Activation: RAT, LIVER, S-9, AROCLOR 1254, Method: VAPOR CHAMBER): inactive; negative | mutagenic call (Test System: AMES SALMONELLA TYPHIMURIUM, Strain/Indicator: TA100, Metabolic Activation: NONE, Method: VAPOR CHAMBER): inactive; negative | mutagenic call (Test System: AMES SALMONELLA TYPHIMURIUM, Strain/Indicator: TA100, Metabolic Activation: RAT, LIVER, S-9, AROCLOR 1254, Method: VAPOR CHAMBER): inactive; negative | mutagenic call (Test System: AMES SALMONELLA TYPHIMURIUM, Strain/Indicator: TA102, Metabolic Activation: NONE): active; positive | mutagenic call (Test System: AMES SALMONELLA TYPHIMURIUM, Strain/Indicator: TA102, Metabolic Activation: NONE, Method: VAPOR CHAMBER): active; positive | mutagenic call (Test System: AMES SALMONELLA TYPHIMURIUM, Strain/Indicator: TA102, Metabolic Activation: RAT, LIVER, S-9, AROCLOR 1254 (10%)): active; positive | mutagenic call (Test System: AMES SALMONELLA TYPHIMURIUM, Strain/Indicator: TA102, Metabolic Activation: RAT, LIVER, S-9, AROCLOR 1254, Method: VAPOR CHAMBER): active; positive | mutagenic call (Test System: AMES SALMONELLA TYPHIMURIUM, Strain/Indicator: TA104, Metabolic Activation: NONE, Method: VAPOR CHAMBER): inactive; negative | mutagenic call (Test System: AMES SALMONELLA TYPHIMURIUM, Strain/Indicator: TA104, Metabolic Activation: RAT, LIVER, S-9, AROCLOR 1254, Method: VAPOR CHAMBER): inactive; negative | mutagenic call (Test System: AMES SALMONELLA TYPHIMURIUM, Strain/Indicator: TA1535, Metabolic Activation: NONE, Method: VAPOR CHAMBER): inactive; negative | mutagenic call (Test System: AMES SALMONELLA TYPHIMURIUM, Strain/Indicator: TA1535, Metabolic Activation: RAT, LIVER, S-9, AROCLOR 1254, Method: VAPOR CHAMBER): inactive; negative

CC(=O)O[C@H]1[C@@H]2CC(C)(C)CC2=C(C=O)[C@@]2(C=O)C[C@@]12C
mutagenic call [1]: inactive; negative | mutagenic call [2]: inactive; negative | mutagenic call (Test System: AMES SALMONELLA TYPHIMURIUM, Strain/Indicator: TA2637, Metabolic Activation: NONE, Method: STANDARD PLATE): inactive; negative | mutagenic call (Test System: CHINESE HAMSTER V-79, Strain/Indicator: V-79/6-THIOGUANINE (HGPRT), Metabolic Activation: NONE): inactive; negative

CCCCO
mutagenic call [1]: inactive; negative | mutagenic call (Test System: AMES SALMONELLA TYPHIMURIUM, Strain/Indicator: TA98, Metabolic Activation: RAT, LIVER, S-9, AROCLOR, Method: STANDARD PLATE): inactive; negative | mutagenic call [2]: inactive; negative | mutagenic call (Test System: AMES SALMONELLA TYPHIMURIUM, Strain/Indicator: TA100, Metabolic Activation: RAT, LIVER, S-9, AROCLOR, Method: STANDARD PLATE): inactive; negative | mutagenic call (Test System: AMES SALMONELLA TYPHIMURIUM, Strain/Indicator: UTH8413, Metabolic Activation: NONE, Method: STANDARD PLATE): inactive; negative | mutagenic call (Test System: AMES SALMONELLA TYPHIMURIUM, Strain/Indicator: UTH8413, Metabolic Activation: RAT, LIVER, S-9, AROCLOR, Method: STANDARD PLATE): inactive; negative | mutagenic call (Test System: AMES SALMONELLA TYPHIMURIUM, Strain/Indicator: UTH8414, Metabolic Activation: NONE, Method: STANDARD PLATE): inactive; negative | mutagenic call (Test System: AMES SALMONELLA TYPHIMURIUM, Strain/Indicator: UTH8414, Metabolic Activation: RAT, LIVER, S-9, AROCLOR, Method: STANDARD PLATE): inactive; negative

C=CC(=O)OCC(Br)CBr (configuration not stated)
mutagenic call (Test System: AMES SALMONELLA TYPHIMURIUM, Strain/Indicator: TA98, Metabolic Activation: HAMSTER, LIVER, S-9, AROCLOR 1254 (10%), Method: PREINCUBATION): active; positive | mutagenic call (Test System: AMES SALMONELLA TYPHIMURIUM, Strain/Indicator: TA98, Metabolic Activation: NONE, Method: PREINCUBATION): inactive; negative | mutagenic call (Test System: AMES SALMONELLA TYPHIMURIUM, Strain/Indicator: TA98, Metabolic Activation: RAT, LIVER, S-9, AROCLOR 1254 (10%), Method: PREINCUBATION): inactive; negative | mutagenic call (Test System: AMES SALMONELLA TYPHIMURIUM, Strain/Indicator: TA100, Metabolic Activation: HAMSTER, LIVER, S-9, AROCLOR 1254 (10%), Method: PREINCUBATION): active; positive | mutagenic call (Test System: AMES SALMONELLA TYPHIMURIUM, Strain/Indicator: TA100, Metabolic Activation: NONE, Method: PREINCUBATION): inactive; negative | mutagenic call (Test System: AMES SALMONELLA TYPHIMURIUM, Strain/Indicator: TA100, Metabolic Activation: RAT, LIVER, S-9, AROCLOR 1254 (10%), Method: PREINCUBATION): active; positive | mutagenic call (Test System: AMES SALMONELLA TYPHIMURIUM, Strain/Indicator: TA1535, Metabolic Activation: HAMSTER, LIVER, S-9, AROCLOR 1254 (10%), Method: PREINCUBATION): active; positive | mutagenic call (Test System: AMES SALMONELLA TYPHIMURIUM, Strain/Indicator: TA1535, Metabolic Activation: NONE, Method: PREINCUBATION): active; positive | mutagenic call (Test System: AMES SALMONELLA TYPHIMURIUM, Strain/Indicator: TA1535, Metabolic Activation: RAT, LIVER, S-9, AROCLOR 1254 (10%), Method: PREINCUBATION): active; positive | mutagenic call (Test System: AMES SALMONELLA TYPHIMURIUM, Strain/Indicator: TA1537, Metabolic Activation: HAMSTER, LIVER, S-9, AROCLOR 1254 (10%), Method: PREINCUBATION): inactive; negative | mutagenic call (Test System: AMES SALMONELLA TYPHIMURIUM, Strain/Indicator: TA1537, Metabolic Activation: NONE, Method: PREINCUBATION): inactive; negative | mutagenic call (Test System: AMES SALMONELLA TYPHIMURIUM, Strain/Indicator: TA1537, Metabolic Activation: RAT, LIVER, S-9, AROCLOR 1254 (10%), Method: PREINCUBATION): inactive; negative

FC(F)(F)c1ccc(Cl)nc1
mutagenic call (Test System: MOUSE LYMPHOMA, Strain/Indicator: L5178Y (TK+/TK-), Metabolic Activation: NONE): active; positive | mutagenic call (Test System: MOUSE LYMPHOMA, Strain/Indicator: L5178Y (TK+/TK-), Metabolic Activation: RAT, LIVER, S-9, AROCLOR 1254): active; positive

CN(C)c1ccc(N=Nc2ccc(S(=O)(=O)O)cc2)cc1
mutagenic call (Test System: Ames Salmonella typhimurium, Strain/Indicator: TA102, Metabolic Activation: None, Method: Preincubation): inactive; negative | mutagenic call (Test System: Ames Salmonella typhimurium, Strain/Indicator: TA102, Metabolic Activation: Rat, Liver, S-9, Aroclor 1254, Method: Preincubation): active; positive. statistically significant at highest dose. | mutagenic call (Test System: Ames Salmonella typhimurium, Strain/Indicator: TA104, Metabolic Activation: None, Method: Preincubation): inactive; negative | mutagenic call (Test System: Ames Salmonella typhimurium, Strain/Indicator: TA104, Metabolic Activation: Rat, Liver, S-9, Aroclor 1254, Method: Preincubation): active; positive. statistically significant at highest dose.
